Measurements as given in ChEMBL document CHEMBL2434952, “Morphological changes of some pathogenic microbial strains induced by novel thiadiazole derivatives” (2013).
The source made the active and inactive calls. No cut-off for these calls is given here.

Key:
[1] = system: Bacillus cereus; test: Antibacterial activity against Bacillus cereus assessed as growth inhibition measured after 24 to 48 hrs by agar disk diffusion method in presence of 24.4 Gy gamma-irradiation; format: functional
[2] = system: Bacillus cereus; test: Antibacterial activity against Bacillus cereus assessed as growth inhibition measured after 24 to 48 hrs by agar disk diffusion method in absence of 24.4 Gy gamma-irradiation; format: functional
[3] = system: Staphylococcus epidermidis; test: Antibacterial activity against Staphylococcus epidermidis assessed as growth inhibition measured after 24 to 48 hrs by agar disk diffusion method in presence of 24.4 Gy gamma-irradiation; format: functional
[4] = system: Staphylococcus epidermidis; test: Antibacterial activity against Staphylococcus epidermidis assessed as growth inhibition measured after 24 to 48 hrs by agar disk diffusion method in absence of 24.4 Gy gamma-irradiation; format: functional
[5] = system: Staphylococcus aureus; test: Antibacterial activity against Staphylococcus aureus assessed as growth inhibition measured after 24 to 48 hrs by agar disk diffusion method in presence of 24.4 Gy gamma-irradiation; format: functional
[6] = system: Staphylococcus aureus; test: Antibacterial activity against Staphylococcus aureus assessed as growth inhibition measured after 24 to 48 hrs by agar disk diffusion method in absence of 24.4 Gy gamma-irradiation; format: functional
[7] = system: Bacillus cereus; test: Antibacterial activity against Bacillus cereus assessed as growth inhibition measured after 24 to 48 hrs by agar disk diffusion method; format: functional
[8] = system: Staphylococcus epidermidis; test: Antibacterial activity against Staphylococcus epidermidis assessed as growth inhibition measured after 24 to 48 hrs by agar disk diffusion method; format: functional
[9] = system: Staphylococcus aureus; test: Antibacterial activity against Staphylococcus aureus assessed as growth inhibition measured after 24 to 48 hrs by agar disk diffusion method; format: functional
[10] = system: Klebsiella pneumoniae; test: Antibacterial activity against Klebsiella pneumoniae assessed as growth inhibition measured after 24 to 48 hrs by agar disk diffusion method; format: functional, organism-based
[11] = system: Pseudomonas aeruginosa; test: Antibacterial activity against Pseudomonas aeruginosa assessed as growth inhibition measured after 24 to 48 hrs by agar disk diffusion method; format: functional, organism-based
[12] = system: Candida albicans; test: Antifungal activity against Candida albicans assessed as growth inhibition measured after 24 to 48 hrs by agar disk diffusion method; format: functional, organism-based

SMILES | inhibition zone (IZ) [1] [mm] | inhibition zone (IZ) [2] [mm] | inhibition zone (IZ) [3] [mm] | inhibition zone (IZ) [4] [mm] | inhibition zone (IZ) [5] [mm] | inhibition zone (IZ) [6] [mm] | inhibition zone (IZ) [7] | inhibition zone (IZ) [8] | inhibition zone (IZ) [9] | growth inhibition (GI) [10] | growth inhibition (GI) [11] | growth inhibition (GI) [12]
O=C(CNc1n[nH]c(=S)s1)c1ccccc1 | 15 | 15 | 20 | 12 | 20 | 20 | 18 mm | 15 mm | 20 mm | inactive | inactive | inactive
NS(=O)(=O)c1ccc(NC(=S)Nc2n[nH]c(=S)s2)cc1 | 10 | 7 | 10 | 6 | 10 | 10 | 7 mm | inactive | 9 mm | inactive | inactive | inactive
O=CN(C=O)c1n[nH]c(=S)s1 | 20 | 13 | 13 | 13 | 16 | 20 | 22 mm | 20 mm | 20 mm | inactive | inactive | inactive
O=C1CSC(Nc2n[nH]c(=S)s2)=N1 | 11 | 11 | 7 | 7 | 15 | 12 | 9 mm | 7 mm | 10 mm | inactive | inactive | inactive
O=C(CCl)Nc1n[nH]c(=S)s1 | – | – | – | – | – | – | inactive | inactive | inactive | inactive | inactive | inactive
S=c1[nH]nc(/N=C/c2ccccc2Cl)s1 | 16 | 20 | 13 | 13 | 16 | 16 | 22 mm | 12 mm | 20 mm | inactive | inactive | inactive
